Source: patent publication US20210386754A1, “COMPOSITIONS AND METHODS FOR TREATING ATHEROSCLEROTIC VASCULAR DISEASE” (AUGUSTA UNIVERSITY RESEARCH INSTITUTE, INC., priority 2020, published 2021)
Entries after “also recorded” stand apart in the source; their conditions may differ.

Columns and labels:
[1] = system: RAW 264.7 macrophages; assay: Clathrin-mediated endocytosis of FITC-transferrin; assay type: cell-based; settings: EIPA 25 μM, 1 hr; FITC-transferrin 1 μg/ml
Experimental: (§1) Clathrin- and caveolin-mediated endocytosis: Receptor-mediated uptake of FITC-transferrin (1 μg/mL; clathrin-mediated endocytosis) and Alexa Fluor 488-albumin ([…]; caveolin-mediated endocytosis) was investigated in RAW 264.7 macrophages following their incubation with ±EIPA (25 μM; 1 hour pre-incubation). Fluorescence intensity was measured using the FL1 channel for FITC and Alexa Fluor 488 (Ex: 488 nm, Em: 530 nm).

[2] = system: F4/80+ macrophages of atherosclerotic ApoE-/- aorta; assay: In vivo DiI-nLDL uptake by macrophages of atherosclerotic arteries; design: species or system mouse; settings: EIPA 25 mg/kg/day, i.p. for 3 days; DiI-nLDL 100 μg retro-orbitally; 12 weeks Western diet
Experimental: Isolation of macrophages from atherosclerotic arteries: 8-10-week-old ApoE^−/− mice were fed a Western diet for 12 weeks. Mice were treated with vehicle or EIPA (25 mg/kg/day, i.p.) for 3 days. On the day of sacrifice, mice were retro-orbitally injected with vehicle or 100 μg Dil-nLDL. After 4 hours, mice were anaesthetized and perfused with ice-cold PBS for 5 min and the entire thoracic aorta with LCA was isolated. Following removal of the adventitia, macrophages were isolated using the Neonatal Heart Dissociation Kit (Miltenyi Biotech.) and CD11b microbeads (Miltenyi Biotech.). Cells were stained with anti-F4/80-APC (clone BM8) or IgG control antibodies (Biolegend). Dil fluorescence was measured in F4/80-positive macrophages [Dil (Ex: 549 nm, Em: 565 nm) and APC (Ex: 640 nm, Em: 670 nm)].

[3] = system: THP-1 monocytes on human aortic endothelial cells; assay: Monocyte adhesion assay; assay type: cell-based; settings: EIPA 25 μM; HAEC TNFα 10 ng/ml, 4 hr
Experimental: Adhesion studies were performed using the human monocyte cell line THP-1. Vehicle- or EIPA (25 μM, 24 hours)-treated THP-1 monocytes were labeled using Vybrant™ CFDA SE Cell Tracer Kit (ThermoFisher). Human aortic endothelial cell monolayers grown on coverslips in a 24-well plate were treated with vehicle (PBS) or TNFα (10 ng/ml) for 4 hours. Endothelial cells were labeled with Cell Tracker™ Deep Red Dye (ThermoFisher). Fifty microliter of THP-1 monocyte suspension containing 1×10^6 cells was added to each well of endothelial cells, and the plates were gently agitated and placed in a cell culture incubator for 1 hour. At the end of the incubation period, the monolayer was gently washed three times with cold PBS. After the final wash, coverslips were stained with Hoechst 33342 (ThermoFisher) and mounted onto slides using mounting medium. Fluorescent signals were detected using a Zeiss 780 upright confocal microscopy. Quantification was completed with Image-Pro Plus software (Media Cybemetics, Bethesda, Md., USA).

[4] = system: CD36-/-/SR-A-/- BMDM overexpressing HRasG12V; assay: Ras (HRasG12V)-induced ox-/ac-LDL internalization, Nile Red FACS; assay type: cell-based, mouse; settings: EIPA 25 μM, 1 hr; 50 μg/mL ox-LDL or ac-LDL, 24 hr
Experimental: Foam cell formation: THP-1 macrophages or bone marrow-derived macrophages were treated with vehicle, known macropinocytosis stimulators (PMA 1 μM, M-CSF 100 ng/mL or PDGF 200 ng/mL)+/− macropinocytosis inhibitors (imipramine 10 μM or EIPA 25 μM; 1 hour pre-incubation) in the presence of nLDL, ox-LDL, or ac-LDL ([…]) for 24 hours. Cells were fixed in 2% PFA and stained with Nile Red (50 ng/mL) for 7 min. Fluorescence intensity was measured using the FL3 channel for Nile Red (Ex: 488 nm, Em: 670 nm).
HRasG12V mutant adenovirus (AD-HRasG12V) and control adenovirus (AD-GFP) were obtained from Dr. Brian Stansfield. Adenovirus multiplicity of infection (MOI) was calculated according to the OD260 of the adenovirus. Macrophages grown at 60-70% confluence were incubated in 500 μl basal medium containing Ad-GFP or Ad-HRasG12V adenovirus at 200 MOI (multiplicity of infection). After 4 hours, media was replaced with fresh complete tissue culture medium for a continuous culture. Cells were treated as indicated within 48 hours after viral transfection and collected for flow cytometry. Overexpression of adenovirus was confirmed by measuring GFP fluorescence. Fluorescence intensity was measured using the FL1 channel GFP (Ex: 488 nm, Em: 530 nm).

[5] = system: Wild type BMDM; assay: Cytokine secretion, LEGENDplex bead-based immunoassay; assay type: cell-based, mouse
Experimental: Wild type BMDM were incubated with vehicle or treated with EIPA (25 μM, 24 hours). Cytokine secretion into the media was quantified using the LEGENDplex™ (mouse inflammation panel) bead-based immunoassay according to the manufacturer's instructions (BioLegend, San Diego, Calif., USA). Data were acquired using four-color BD FACSCalibur (BD Biosciences, San Jose, Calif., USA) and analyzed using the LEGENDplex Data Analysis software (BioLegend).

[6] = system: RAW 264.7 macrophages; assay: Caveolin-mediated endocytosis of Alexa Fluor 488-albumin; assay type: cell-based; settings: EIPA 25 μM, 1 hr; AF488-albumin 1 μg/ml
Experimental: as §1

CCN(c1nc(N)c(C(=O)N=C(N)N)nc1Cl)C(C)C [EIPA, 5-(N-ethyl-N-isopropyl)amiloride]
clathrin-mediated transferrin endocytosis [1]: without inhibiting; also recorded: does not inhibit | DiI-LDL uptake by F4/80+ macrophages in atherosclerotic arteries [2]: substantially inhibited | monocyte adhesion to TNFα-treated endothelial cells [3]: does not inhibit | ox- and ac-LDL internalization (Nile Red fluorescence) [4]: inhibits | IL-6 secretion ([5]; EIPA 25 μM, 24 hours, n = 3, vehicle 2.40 ± 0.58): 1.82 ± 0.40 pg/mL | TNFα secretion ([5]; EIPA 25 μM, 24 hours, n = 3, vehicle 7.83 ± 1.89): 4.76 ± 0.77 pg/mL | MCP-1 secretion ([5]; EIPA 25 μM, 24 hours, n = 3, vehicle 38.04 ± 6.03): 22.19 ± 2.30 pg/mL | macrophage secretion of TNF-α, MCP-1, and IL-6 ([5]; in the absence of exogenous lipids): does not inhibit | caveolin-dependent albumin internalization [6]: without inhibiting; also recorded: does not inhibit
